Experimental data: patent US20230414629A1, “MATERIALS AND METHODS OF TREATING CANCER” (MONOPTEROS THERAPEUTICS, INC., priority 2020, published 2023)
“Also recorded” adds a separate entry of the source.

Key:
[1] = pKa; assay type: physicochemical
[2] = Plasma pharmacokinetics in C57/BL6 mice; assay type: in vivo
Protocol: (§1) A high volume of distribution (Vss 22.6 l/kg) was observed. […] The tumor concentrations in this experiment were above 3 μM for a 24-hour period, which is a required dose for an anti-tumor effect in patient-derived tumor spheroids as shown in FIG. 9. […] MPT-0118 is quickly distributed from the plasma to the tissue compartment, which reduces the risk for depletion of circulating Tregs. The high volume of distribution and accumulation of MPT-0118 in tumor tissue broadens the therapeutic window for cancer therapy.

[3] = Tumor pharmacokinetics in D4M.3A tumor-bearing C57/BL6 mice; assay type: in vivo; details: 64 mg/kg PO once per day, after 20 days of dosing, for a 24-hour period
Protocol: as §1

[4] = system: D4M.3A tumor; experiment: Tumor growth in D4M.3A tumor-bearing C57/BL6 mice, oral dosing; assay type: in vivo; details: 64 mg/kg orally once per day for 20 days
Source text: A high volume of distribution (Vss 22.6 l/kg) was observed. […] MPT-0118 is quickly distributed from the plasma to the tissue compartment, which reduces the risk for depletion of circulating Tregs. The high volume of distribution and accumulation of MPT-0118 in tumor tissue broadens the therapeutic window for cancer therapy.

[5] = system: circulating regulatory T cells (Tregs); experiment: Circulating Tregs in rats under continuous oral dosing (flow cytometry); assay type: in vivo; details: 15 and 30 mg/kg oral, days 0 through 14
Source text: Animals: Harlan Sprague Dawley rats (Hsd:SD) rats were procured through Envigo (Indianapolis, IN). Rats were individually housed in an Optirat carousel with a filtered air supply (Animal Care Systems, Inc. [Centennial, CO]). Rats were fed Teklad rodent diet (Cat. #2020X) and bedded with Teklad ⅛th inch corncob bedding.
Blood sampling: After a 72-hour acclimation period, Rats were randomized into (3) groups of 5 rats each (Day −1). Blood samples were taken on days: −1, 3, 5, 7, 10, and 14. Blood sampling was conducted by inserting a 22 g PinPort injector (Cat. #PNP3M) on the pinport and drawing 200 μL of catheter Loc solution using a 1 mL syringe. The syringe was discarded and a new 1 mL syringe was used to draw approximately 300 μL of whole blood. Whole blood was expelled into 1.7 mL K2EDTA coated tubes and inverted 3× and put at 4 C until processing for flow cytometry. A syringe with Catheter Loc solution (Heparin/Glycerol Loc solution, Cat. #HGS-5 [Braintree Scientific]) was placed on a new PinPort injector and 200 μL of catheter loc solution was added. […]
Flow cytometry: Following red blood cell lysis (BD Pharm Lyse, Cat. #555899, Lot #9311388), rat blood samples were stained with near-IR fixable viability dye (1:3000 dilution, Invitrogen, Cat. #L34960 H, Lot #2159963) for 30 minutes at room temperature. […] Data was analyzed with FlowJo (BD, v10.6.2).

[6] = Serum IgE and IgG in dogs dosed daily for 28 days; assay type: in vivo; details: 10-30 mg/kg daily for 28 days
Protocol: Whole venous blood samples of approximately 1 mL were collected from a peripheral vein of all animals on day 0 and on day 28 of the treatment period for determination of IgG and IgE concentrations. Test samples were diluted and incubated in the microtiter wells for 45 minutes alongside dog IgG or IgE standards. The microtiter wells were subsequently washed and HRP conjugate is added and incubated for 45 minutes. IgG or IgE molecules are thus sandwiched between the immobilization and detection antibodies. The wells were then washed to remove unbound HRP-labeled antibodies and TMB reagent was added and incubated for 20 minutes at room temperature. […] Color development is stopped by the addition of Stop Solution, changing the color to yellow, and optical density is measured spectrophotometrically at 450 nm. The concentration of IgG or IgE is proportional to the optical density of the test sample and is derived from a standard curve.

[7] = system: patient-derived tumor spheroids; experiment: Anti-tumor effect in patient-derived tumor spheroids; assay type: cell-based
[8] = system: D4M.3A tumor; experiment: D4M.3A syngeneic tumors in C57BL/6J mice, I.P. monotherapy and combination with anti-PD-1; assay type: in vivo
Protocol: One million cells of D4M.3A tumor were injected subcutaneously into the right hind flank of C57BL/6J mice.
Anti-PD-1 Antibody dosing was 10 μL/g animal weight for 3 doses on first, third and fifth treatment day.
Measurement of tumor volume (L×W2)/2 was done by caliper. Longest tumor diameter becomes length. Width is perpendicular to length. Volume=(width2×length)/2.

[9] = in vivo; cited from earlier work

CO[C@@H](C)c1c(NC(=O)Nc2cnc(-n3nccn3)c(C(F)(F)F)c2)cnc(N)c1Br [Compound-139]
pKa [1]: 6.5

CN1CCC[C@H](CN2c3ccccc3Sc3ccccc32)C1 [(S)-mepazine]
Vd ([2]; C57/BL6, mouse, single dose 16 mg/kg IV, plasma over 8 hours, read-out: volume of distribution (Vss)): 22.6 L/kg | bioavailability ([2]; mouse, in vivo, po): 25 to 35% | tumor concentrations [3]: above 3 μM | tumor growth inhibition [4]: significant tumor growth inhibition | average percent of circulating regulatory T cells (Tregs) [5]: no effect; also recorded: did not deplete | serum levels of IgE [6]: not negatively impact; also recorded: did not increase; also recorded: did not decrease | serum levels of IgG [6]: not negatively impact; also recorded: did not increase; also recorded: did not decrease | required dose for an anti-tumor effect in patient-derived tumor spheroids [7]: 3 µM | pKa [1]: 9.2 | tumor volume ([8]; combination therapy: 32 mg/kg I.P. once per day with anti-PD-1 antibody): significant reduction in tumor volume; also recorded: reduced tumor volume | tumor volume ([8]; monotherapy, 32 mg/kg I.P. once per day, from day 9): reduced tumor volume

CO[C@@H](C)c1c(NC(=O)Nc2cnc(-n3nccn3)c(Cl)c2)cnc2cc(Cl)nn12 [Example-10]
pKa [1]: < 5

CO[C@@H](C)c1c(NC(=O)Nc2ccnc(C(F)(F)F)c2)cnc2cc(Cl)nn12 [MLT-943]
serum IgE [9]: increased
